Experimental data from US8772002B1, “Method for treatment of microorganisms during propagation, conditioning and fermentation using hops acid extracts and organic acid” (Hercules Incorporated, priority 2013, dated 2014).
Where two headings read alike, the source gives them in different places.

Assays:
fermentation = details: cited from earlier work
Weisella confusa = details: cited from earlier work
Lactobacillus plantarum = experiment: Minimal Inhibitory Concentration (MIC), two-fold dilution series in 96 well microplate; assay type: cell-based; details: for MIC: Lactiplantibacillus plantarum
Method: This is the lowest concentration of a substance or substances which can achieve complete inhibition of growth.
In order to determine the Minimal Inhibitory Concentration, a two-fold dilution series of the antimicrobial is constructed with the dilutions being made in growth media. The dilutions are made in a 96 well microplate such that each well has a final volume of 280 μl of media and antimicrobial. […] After the dilution series is constructed the wells receive an inoculum of microbe suspended in growth media such that the final concentration of microbes in the well is i˜5×10^5 cfu/ml. In these examples the test microbe used is Lactobacillus plantarum. The cultures are incubated at 37° C. for 18-24 hours, and the wells scored as positive or negative for growth based on a visual examination for turbid wells, with turbidity being an indicator of growth.
Minimal inhibitory concentrations were determined for both citric acid and hops acid at pH 6 using the protocol described above with Lactobacillus plantarum as the test microbe. Checkerboard synergy plates were constructed as described, the wells inoculated to a final concentration of ˜5×10^5 cfu/ml, incubated for 18-24 hours, and then scored visually for growth/no growth.
Minimal inhibitory concentrations were determined for both benzoic acid and hops acid at pH 6 using the protocol described above with Lactobacillus plantarum as the test microbe. Checkerboard synergy plates were constructed as described, the wells inoculated to a final concentration of ˜5×10^5 cfu/ml, incubated for 18-24 hours, and then scored visually for growth/no growth.

Virginiamycin
concentration that will suppress fermentation (fermentation): over 2 mg/L
concentration required to inhibit growth of Weisella confusa (Weisella confusa): over 25 mg/L

O=C(O)c1ccccc1 [Benzoic Acid, benzoic acid]
MIC (Lactobacillus plantarum; pH 6, read-out: Benzoic Acid MIC (QA) used alone): 100 mg/mL

O=C(O)CC(O)(CC(=O)O)C(=O)O [Citric Acid, citric acid]
MIC (Lactobacillus plantarum; pH 6, 37° C., 18-24 hours, complete inhibition of growth, read-out: Citric Acid MIC (QA) used alone): 100 mg/mL
Citric Acid MIC (QA) used alone (Lactobacillus plantarum; pH 6, 37° C., 18-24 hours, complete inhibition of growth): 100000 ppm
